Data from patent publication US10202604B2, “Methods of using microRNA-141” (Stemirna Therapeutics Co., Ltd., priority 2016, dated 2019).

Assays:
[1] = tested on: cultured as well as primary patient human prostate cancer cells; assay: Matrigel invasion assay; assay type: cell-based
Method: For Boyden Chamber invasion assays, Biocoat Matrigel Invasion Chamber (BD, Franklin Lakes, N.J.) was employed following the manufacturer's instructions. Briefly, 100,000-200,000 of prostate cancer cells after transfection with […]/miR-141 oligos or infection with miR-141 over-expressing lentivirus were seeded into each well. Medium with 20% fetal bovine serum was used in the lower chamber as chemo-attractant. After 20 h, cells were fixed and stained using HEMA stain. Representative images were taken for each membrane and cells were counted. Migration assays were simultaneously performed in control wells using identical protocol with Transwell (Costar; […]) without Matrigel. In some experiments, Du145 cells were plated one day before and treated with 1, 2, and 5 μM of DZNep (3-Deazaneplanocin A) for 96 h after which cells were harvested and used in invasion assays and Western blot.

human EZH2 3'-UTR = assay: EZH2 3'-UTR luciferase reporter assay; assay type: cell-based; details: Du145 cells
Method: FIG. 6A: Putative binding site of miR-141 in EZH2 3′-UTR. […] FIG. 6C is a qPCR analysis of EZH2 mRNA levels in CD44^+ PCa cells. Bars, mean±SD. *P<0.05; **P<0.01. […] Bars, mean±SD. **P<0.01. […] Western blotting was performed in PC3 and Du145 cells transfected with NC (60 nM) or miR-141 (30 or 60 nM) oligos (72 h). Relative protein levels were measured by densitometry and normalized to GAPDH levels (indicated below). […] Du145 cells plated one day before were treated with 1, 2, and 5 μM of DZNep for 96 h and then cells were harvested for invasion assays. **P<0.01. Inset, WB showing reduced EZH2 proteins by DZNep. […] Du145 cells were transfected with 10 nM scramble siRNA (siCon) or EZH2-targeting siRNAs (siEZH2) or siEZH2 plus anti-miR-141 (30 nM). 48 h later, cells were harvested for invasion assays. Bars, mean±SD. **P<0.01. […]
The human CD44 3′-UTR was amplified from Du145 genomic DNA using primers 5′-[…]-3′ (SEQ ID NO: 2) and 5′-[…]-3′ (SEQ ID NO: 3), as previously described (13). […] The luciferase activities were detected using Duo-luciferase reporter assay system (Promega). Human RAC1, CDC42, CDC42EP3, and ARPC5 3′-UTR luciferase reporter constructs were obtained from SwitchGear Genomics (Menlo Park, Calif.) and luciferase activities were measured per the manufacturer's instructions using LightSwitch luciferase assay kit.

[2] = tested on: epithelial to mesenchymal transition markers in Du145 cells; assay: qPCR analysis of epithelial to mesenchymal transition markers; assay type: cell-based, human
Method: FIGS. 3A-3J show partial suppression of epithelial to mesenchymal transition by miR-141 and CD44 as a direct target of miR-141. FIGS. 3A-3B show qPCR analysis of epithelial to mesenchymal transition markers in bulk (FIG. 3A) or CD44^+ (FIG. 3B) Du145 cells transfected with the miR-141 oligos (30 nM; 48 h). Results were presented as the relative expression levels over the cells transfected with the NC oligos. […] GAPDH was used as control and the relative protein levels after normalizing to GAPDH and NC controls were indicated below each lane. […] Shown below is the actual sequence in the region with the mutated miR-141 binding sequence indicated in grey (below). […] Shown are representative images. […] Du145 cells were co-transfected with NC or miR-141 oligos (30 nM) together with pBabe empty vector or pBabe-CD44 vector. After 48 h, cells were harvested for invasion assays. Bars, mean±SD. *, P<0.05; **, P<0.01.
Total RNA was extracted using microRNA isolation kit (Life Technologies) according to the manufacturer's instructions. microRNA qPCRs were performed using TaqMan microRNA assays (Life Technologies). qPCR data for microRNAs were normalized to RNU48 whereas qPCR data for mRNAs were normalized to GAPDH.

Substance: miR-141: miR-141 mirVana mimics (Life Technologies); microRNA-141 oligonucleotide may have SEQ ID NO: 1; in some experiments over-expressed by lentiviral vectors (UAACACUGUCUGGUAAAGAUGG; listed as RNA, further chemistry not given here) [miR-141 mirVana mimics (Life Technologies); in some experiments over-expressed by lentiviral vectors]
- invasive capabilities [1]: significantly inhibited
- luciferase activity, WT EZH2 3'-UTR (human EZH2 3'-UTR): suppressed
- luciferase activity, mutated EZH2 3'-UTR (human EZH2 3'-UTR): not
- E-cadherin (CDH1) mRNA ([2]; CD44+ Du145 cells, 30 nM, 48 h): significant increase
- mRNA levels of mesenchymal markers including VIM and ZEB1 ([2]; CD44+ Du145 cells, 30 nM, 48 h): generally reduced
- mRNA levels of most other EMT markers including FN, ZEB2, SNAI1, SNAI2, and TWIST ([2]; bulk Du145 cells): did not reduce
- E-cadherin mRNA ([2]; bulk Du145 cells, 30 nM, 48 h): increased
- VIM and ZEB1 mRNA ([2]; bulk Du145 cells, 30 nM, 48 h): decreased
